Measurements taken from PMC11050087, “Polyphenols from Maackia amurensis Heartwood Protect Neuronal Cells from Oxidative Stress and Prevent Herpetic Infection” (International Journal of Molecular Sciences, 2024).
Several values for one entry are separate records, joined by “and”; a condition that tells them apart may be missing. Equal entries are not always repeated. Where two headings read alike, the source gives them in different places.

Key:
[1] = tested on: HSV-1; set-up: method as in PMID 36985562; settings: ref [22], cited from earlier work
[2] = tested on: HSV-1; assay: Treatment of virus-infected cells with polyphenols, CPE inhibition assay; format: cell-based, HSV-1 strain L2
Method: In order to study the mechanism of action of these compounds, two additional schemes of treatment of the virus and Vero cells with polyphenols were applied: the compounds were added before virus infection (pretreatment of cells) and after penetration of the virus into host cells (treatment of infected cells). The fourth method of exposure where the virus and polyphenols were added to cells simultaneously (simultaneous treatment) was previously described by us in [22]. The anti-HSV-1 activity of polyphenols was assessed using the cytopathic effect inhibition (CPE) assay.
The monolayer of cells was infected with the virus (100 TCID50/mL) at 37 °C for 1 h, and then the cells were washed with PBS (Sigma, Saint-Louis, MO, USA) and treated with different concentrations of the studied compounds and incubated until CPE appeared.

[3] = tested on: HSV-1; assay: Virucidal activity, RT-PCR assay (HSV-1 pretreated with compounds); format: cell-based, HSV-1 strain L2; settings: for Ct: 72 h; for −ΔCt: vs virus control
Method: Vero cells grown on 96-well plates were infected with the virus (100 TCID50/mL), pretreated with polyphenolic compounds at concentrations 0.1, 1 and 10 μg/mL. After 72 h of cell incubation, viral DNA was extracted from the supernatants, and the relative level of HSV-1 DNA was determined using RT-PCR. The effect of polyphenols on the relative level of viral DNA was assessed using the 2^−∆Ct method and reported as fold reduction compared to virus control.
(§1) The HSV-1 strain L2 obtained from N.F. Gamaleya Federal Research Centre for Epidemiology and Microbiology (Moscow, Russia) was grown in Vero cells as previously described.
(§2) We determined the direct inhibitory effect of polyphenolic compounds from M. amurensis heartwood on HSV-1 (virucidal effect). We mixed the virus at an infectious dose (100 TCID50/mL) with polyphenolic compounds (from 0.1 to 100 µg/mL) at a ratio of 1:1 (v/v) and incubated for an hour at 37 °C. Then, we infected the monolayer of Vero cells grown on 96-well plates (1 × 10^4 cells/well) with HSV-1 pretreated with the studied compounds. After 1 h adsorption at 37 °C, the cells were washed with phosphate-buffered saline (PBS) and overlaid by the maintenance medium with 1% FBS. The plates were incubated for 72 h at 37 °C in a CO2-incubator. The cytopathic effect (CPE) inhibition assay and real-time reverse transcription-PCR (RT-PCR) assay were used to evaluate virucidal effect of the tested compounds.
We performed the RT-PCR assay as we previously described in detail in [22]. Briefly, HSV-1 DNA was extracted after incubation from cell supernatants by using the DNA-sorb-AM (K1-12-100-CE) nucleic acid extraction kit (AmpliSens®, Moscow, Russia) according to the manufacturer′s instructions. We treated the supernatants with a lysis solution that contained guanidine chloride (chaotropic agent) in the presence of sorbent (silica particles). As the elution solution was added, the DNA was […] silica particles and separated from the sorbent particles by centrifugation.
We detected the DNA of HSV-1 in the obtained samples using the AmpliSens® HSV I, II-FRT-100F PCR kit (AmpliSens®, Moscow, Russia) on a real-time PCR instrument Rotor-Gene Q (Qiagen, Hilden, Nordrhein-Westfalen, Germany) according to the manufacturer′s instructions. The PCR reaction conditions were the following: initial denaturation at 95 °C for 15 min; then 5 cycles at 95 °C for 5 s, at 60 °C for 20 s, at 72 °C for 15 s; then 40 cycles at 95 °C for 5 s, at 60 °C for 20 s, and at 72 °C for 15 s. A negative sample was used as the amplification control for each run. The threshold cycle number Ct, was measured as the PCR cycle, where the amount of the amplified target reached the threshold value; the Ct values ≥ 37 indicated the absence of the HSV-1 DNA in the samples. We assessed the anti-HSV-1 activity of the studied compounds by the reduction in the viral DNA levels using the 2^−ΔCt method according to Equation (2):(2) ΔCt=Ctcv−Cttv where Ct is the threshold cycle number measured as the PCR cycle, where the amount of the amplified target reached the threshold value, […]

[4] = Cytotoxicity against Vero cells (MTT assay); format: cell-based; settings: African green monkey
Method: We prepared the stock solutions of the tested compounds (10 mg/mL) in DMSO (Sigma, St. Louis, MO, USA). For the MTT assay and further studies of anti-HSV-1 activity, we diluted the stock solutions with DMEM so that the final concentration of DMSO was 0.5%.
We used MTT assay to determine the cytotoxic effect of the tested compounds against Vero cells. We performed the MTT assay as previously described.

[5] = tested on: 6-OHDA-treated Neuro-2a cells; assay: 6-OHDA-induced neurotoxicity model, cell viability test (MTT); format: cell-based, murine; settings: compounds at 10, 1, 0.1 µM; 6-OHDA 100 µM
Method: Neuro-2a cells were incubated with the studied polyphenolic compounds for 1 h. Then, 100 µM of 6-hydroxydopamine 6-OHDA were added. We determined the percentage of living Neuro-2a cells after treatment with 6-OHDA (Figure 4a–d).
Figure 4 The effect of polyphenolic compounds isolated from M. amurensis heartwood on the viability of Neuro-2a cells treated with 6-OHDA (100 μM) (a–d). The viability of Neuro-2a cells treated with various compounds and 6-OHDA was measured by the MTT assay. Polyphenolic compounds isolated from M. amurensis heartwood were used at concentrations 10, 1, 0.1 μM. The data are presented as means ± SEM of three independent replicates. (*) indicate p < 0.05 versus 6-OHDA-treated cells.
After 24 h of adhesion, Neuro-2a cells (5 × 10^4 cells/mL) were treated with polyphenolic compounds at concentrations of 0.1, 1 and 10 μM for 1 h. Then, 100 µM of 6-OHDA or 1 mM of PQ (Sigma-Aldrich, St. Louis, MO, USA) were added. Cells incubated without inductors or with inductors were used as positive and negative control, respectively. Cell viability was measured after 24 h using the MTT assay.

[6] = tested on: HSV-1; assay: Virucidal activity, CPE inhibition assay (HSV-1 pretreated with compounds); format: cell-based, HSV-1 strain L2
Method: The antiviral activity of polyphenols from M. amurensis against HSV-1 was assessed using the cytopathic effect inhibition (CPE) assay. To study the inhibitory effect of polyphenolic compounds directly on the HSV-1 virus (direct virucidal activity), the monolayer of Vero cells grown on 96-well plates (1 × 10^4 cells/well) was infected with the virus (100 TCD50/mL), pretreated with different concentrations of polyphenolic compounds.
as §1, §2
We previously described this method in detail in [22]. We performed the MTT assay to evaluate the antiviral activity of polyphenolic compounds. The viral inhibition rate (IR, %) was calculated according to Equation (1):(1) IR, %=Atv−Acv/Acd−Acv×100, where Atv is the absorbance of cells infected with HSV-1 pretreated with the studied compounds,
We calculated the selectivity index (SI) as the ratio of CC50 to IC50. Experiments were repeated three times.

[7] = Human alphaherpesvirus 1, 72 h, read-out: 2^−ΔCt
[8] = Human alphaherpesvirus 1, 72 h, read-out: log10

Nc1nc2c(ncn2COCCO)c(=O)[nH]1 [Acyclovir, reference compound]
Simultaneous Treatment SI ([1]; ratio of CC50 to IC50): 430 | Simultaneous Treatment IC50 ([1]; virus and compound added to cells simultaneously, CPE assay): 2.1 ± 0.3 µg/mL | IC50 ([1]; virus and compound added to cells simultaneously, CPE assay, read-out: Simultaneous Treatment IC50): 9.3 ± 1.3 µM | IC50 ([2]; Human alphaherpesvirus 1, compound added after virus adsorption and penetration, CPE assay): 0.4 µg/mL and 1.8 µM | Treatment of Infected Cells SI ([2]; ratio of CC50 to IC50): >2500

Oc1ccc2c(c1)OC[C@H]1c3cc4c(cc3O[C@@H]21)OCO4 [Compound 4, maackiain]
Ct ([3]; 0.1 µg/mL): 18.1 ± 2.2 | −ΔCt ([3]; 0.1 µg/mL): 0 | Ct ([3]; 1 µg/mL): 19.0 ± 2.1 | −ΔCt ([3]; 1 µg/mL): −0.9 ± 0.1 | anti-HSV-1 activity by RT-PCR (in words) ([3]; 10 µg/mL): moderate anti-HSV-1 activity | Ct ([3]; 10 µg/mL): 20.7 ± 2.3 | −ΔCt ([3]; 10 µg/mL): −2.6 ± 0.3 | activity at 0.1 µg/mL [3, 7]: 100% | activity at 1 µg/mL [3, 7]: 53.6 ± 6.4% | activity at 10 µg/mL [3, 7]: 16.5 ± 2.1% | log reduction at 0.1 µg/mL [3, 8]: 0 | log reduction at 1 µg/mL [3, 8]: 0.3 ± 0.04 | log reduction at 10 µg/mL [3, 8]: 0.8 ± 0.1 | CC50 [4]: 152 µg/mL and 536 µM | effect on viability of 6-OHDA-treated Neuro-2a cells (in words) [5]: weak effect on cell viability | IC50 ([6]; Human alphaherpesvirus 1, virus pretreated with compound (virucidal), CPE assay, Vero cells, 100 TCID50/mL): 28.3 µg/mL and 99.6 µM | SI ([6]; ratio of CC50 to IC50, virucidal scheme): 5.4 and 5.4 ± 0.7
